One assay deals with iNOS (Mouse) (Mus musculus, UniProt P29477). Nature of the assay: iNOS (Mouse) enzyme assay. It is filed as biochemical. The conditions noted are these: values in parentheses, read-out: iNOS IC50 (rodent data in parentheses). As to the method: nNOS (Rat), eNOS (Rat) and iNOS (Mouse) Enzyme Assay Recombinant rat or mouse NO synthases (iNOS, eNOS, nNOS) were expressed in Sf9 cells (Sigma), 36 mg prot/ml (Bradford). […] Inhibition of NOS was determined by measuring the formation of L-[3H] citrulline from L-[3H] arginine. […] Stop buffer:100 mM Hepes, pH 5.5, 3 mM EDTA, 3 mM EGTA. Enzyme and inhibitor were pre-incubated for 35 min in the presence of NADPH before addition of arginine to initiate the reaction.

A further assay addresses nNOS (Rat) (Rattus norvegicus, UniProt P29476). Nature of the assay: nNOS (Rat) enzyme assay. In kind it is biochemical. Particulars: for IC50: read-out: nNOS IC50 (rodent data in parentheses); for Selectivity eNOS/nNOS (rodent data in parentheses): rodent enzymes. On the procedure:
nNOS (Rat), eNOS (Rat) and iNOS (Mouse) Enzyme Assay Recombinant rat or mouse NO synthases (iNOS, eNOS, nNOS) were expressed in Sf9 cells (Sigma), 36 mg prot/ml (Bradford). […] Inhibition of NOS was determined by measuring the formation of L-[3H] citrulline from L-[3H] arginine. […] Stop buffer:100 mM Hepes, pH 5.5, 3 mM EDTA, 3 mM EGTA.

For assay [1], the target named is Nitric oxide synthase (neuronal, human recombinant) nNOS (Homo sapiens, UniProt P29475). The experiment in a line: Human nNOS enzyme assay ([3H]L-arginine to [3H]L-citrulline). In kind it is biochemical. The conditions noted are these: for Selectivity eNOS/nNOS: human enzymes, ratio of eNOS IC50 to nNOS IC50; for IC50: read-out: hnNOS IC50.
The target in assay [2] is Nitric oxide synthase (endothelial, human recombinant) eNOS (Homo sapiens, UniProt P29474). Nature of the assay: Human eNOS enzyme assay ([3H]L-arginine to [3H]L-citrulline). In kind it is biochemical. The conditions noted are these: read-out: heNOS IC50.
For another assay, the target named is eNOS (Rat) (Rattus norvegicus, UniProt Q62600). Nature of the assay: eNOS (Rat) enzyme assay. The conditions noted are these: values in parentheses; for IC50: read-out: eNOS IC50 (rodent data in parentheses). It is filed as biochemical.
Assay [3] concerns the target Recombinant human inducible NOS (iNOS) (Homo sapiens, UniProt P35228). Nature of the assay: Human iNOS enzyme assay, radiometric. It is filed as biochemical. The conditions noted are these: read-out: hiNOS IC50.
Assay [4] deals with Rats with L5/L6 spinal nerve ligation. The experiment in a line: Chung Spinal Nerve Ligation model, thermal hyperalgesia. It is filed as in vivo, rat. Particulars: standard dosings 3, 10, and 30 mg/kg injected IP.
Assay [5] relates to Male, Sprague Dawley rats. Nature of the assay: Porreca model of allodynia (inflammatory soup onto the dura, hindpaw von Frey). In kind it is in vivo, rat.
Setting [6] is: human recombinant nNOS, values without parentheses.
[7] abbreviates: human recombinant eNOS, values without parentheses.
[8] abbreviates: rat nNOS, values in parentheses.
Where [9] appears, read: human recombinant iNOS, values without parentheses.

Several values for one entry are separate records, joined by “and”; a condition that tells them apart may be missing. Identical values can stand only once. Counter-ions that a name gives are not always drawn. Like-named read-outs stand apart in the source and are kept apart here. Bounds are passed on as bounds.

eNOS (Rat), sequence (Q62600 2-1202): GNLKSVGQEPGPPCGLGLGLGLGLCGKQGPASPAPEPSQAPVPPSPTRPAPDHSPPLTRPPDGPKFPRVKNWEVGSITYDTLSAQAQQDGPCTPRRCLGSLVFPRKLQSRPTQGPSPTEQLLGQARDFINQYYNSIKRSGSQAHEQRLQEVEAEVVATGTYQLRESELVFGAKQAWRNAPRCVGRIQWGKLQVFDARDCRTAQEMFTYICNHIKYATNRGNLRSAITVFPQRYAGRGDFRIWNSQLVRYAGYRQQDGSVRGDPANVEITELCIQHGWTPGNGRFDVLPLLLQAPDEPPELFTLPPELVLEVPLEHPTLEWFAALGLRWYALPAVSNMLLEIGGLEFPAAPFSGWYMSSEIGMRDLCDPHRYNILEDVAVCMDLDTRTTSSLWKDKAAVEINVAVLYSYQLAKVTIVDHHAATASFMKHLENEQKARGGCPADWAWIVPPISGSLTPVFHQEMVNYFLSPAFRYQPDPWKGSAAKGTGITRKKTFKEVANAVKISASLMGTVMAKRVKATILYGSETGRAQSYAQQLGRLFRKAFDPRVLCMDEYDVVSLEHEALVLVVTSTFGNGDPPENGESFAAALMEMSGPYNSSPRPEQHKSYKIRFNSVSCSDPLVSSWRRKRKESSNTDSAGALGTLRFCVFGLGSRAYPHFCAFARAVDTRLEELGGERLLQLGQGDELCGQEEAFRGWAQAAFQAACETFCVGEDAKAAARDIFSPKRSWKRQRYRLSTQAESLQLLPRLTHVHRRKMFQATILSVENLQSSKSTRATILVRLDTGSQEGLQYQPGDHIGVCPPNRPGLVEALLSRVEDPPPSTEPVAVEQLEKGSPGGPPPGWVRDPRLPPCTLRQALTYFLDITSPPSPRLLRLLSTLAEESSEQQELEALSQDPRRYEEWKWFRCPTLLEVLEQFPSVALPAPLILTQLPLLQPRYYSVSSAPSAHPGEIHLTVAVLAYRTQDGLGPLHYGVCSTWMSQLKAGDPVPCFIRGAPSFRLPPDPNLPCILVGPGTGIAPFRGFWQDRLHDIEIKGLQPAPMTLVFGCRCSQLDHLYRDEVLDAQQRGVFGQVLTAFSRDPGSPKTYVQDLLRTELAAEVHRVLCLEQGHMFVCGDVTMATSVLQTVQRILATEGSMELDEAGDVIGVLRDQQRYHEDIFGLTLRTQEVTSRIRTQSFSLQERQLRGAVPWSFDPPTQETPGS
Nitric oxide synthase (endothelial, human recombinant) eNOS, sequence (P29474 2-1203): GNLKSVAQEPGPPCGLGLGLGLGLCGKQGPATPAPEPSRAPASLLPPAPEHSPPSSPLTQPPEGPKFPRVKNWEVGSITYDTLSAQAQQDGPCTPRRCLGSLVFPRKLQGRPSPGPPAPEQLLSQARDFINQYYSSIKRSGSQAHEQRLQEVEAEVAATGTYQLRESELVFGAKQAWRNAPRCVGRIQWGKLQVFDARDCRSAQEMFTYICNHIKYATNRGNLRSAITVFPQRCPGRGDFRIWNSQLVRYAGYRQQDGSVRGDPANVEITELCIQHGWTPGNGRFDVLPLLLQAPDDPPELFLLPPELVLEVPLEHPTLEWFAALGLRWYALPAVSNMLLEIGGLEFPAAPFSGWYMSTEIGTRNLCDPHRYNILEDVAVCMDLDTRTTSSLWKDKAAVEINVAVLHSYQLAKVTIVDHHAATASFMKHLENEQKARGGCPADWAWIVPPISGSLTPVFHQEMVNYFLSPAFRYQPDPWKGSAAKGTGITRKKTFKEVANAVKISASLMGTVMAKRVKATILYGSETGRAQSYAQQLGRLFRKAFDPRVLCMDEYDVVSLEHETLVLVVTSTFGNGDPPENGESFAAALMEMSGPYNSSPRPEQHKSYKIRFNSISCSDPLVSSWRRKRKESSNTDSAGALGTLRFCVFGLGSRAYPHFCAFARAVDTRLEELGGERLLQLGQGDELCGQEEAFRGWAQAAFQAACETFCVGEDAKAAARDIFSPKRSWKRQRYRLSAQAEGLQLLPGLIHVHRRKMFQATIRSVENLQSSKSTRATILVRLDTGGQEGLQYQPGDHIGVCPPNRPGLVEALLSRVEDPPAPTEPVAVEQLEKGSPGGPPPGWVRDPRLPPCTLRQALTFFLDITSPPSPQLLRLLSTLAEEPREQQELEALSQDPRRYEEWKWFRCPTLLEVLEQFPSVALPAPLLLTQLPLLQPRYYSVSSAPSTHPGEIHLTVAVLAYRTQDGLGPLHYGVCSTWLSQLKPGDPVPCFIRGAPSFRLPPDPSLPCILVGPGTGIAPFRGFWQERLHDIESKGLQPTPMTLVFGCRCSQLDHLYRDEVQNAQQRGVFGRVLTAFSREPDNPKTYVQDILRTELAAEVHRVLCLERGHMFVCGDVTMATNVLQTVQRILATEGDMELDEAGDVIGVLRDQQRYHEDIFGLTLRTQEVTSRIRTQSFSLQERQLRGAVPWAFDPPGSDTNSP
Nitric oxide synthase (neuronal, human recombinant) nNOS, sequence (P29475 whole entry): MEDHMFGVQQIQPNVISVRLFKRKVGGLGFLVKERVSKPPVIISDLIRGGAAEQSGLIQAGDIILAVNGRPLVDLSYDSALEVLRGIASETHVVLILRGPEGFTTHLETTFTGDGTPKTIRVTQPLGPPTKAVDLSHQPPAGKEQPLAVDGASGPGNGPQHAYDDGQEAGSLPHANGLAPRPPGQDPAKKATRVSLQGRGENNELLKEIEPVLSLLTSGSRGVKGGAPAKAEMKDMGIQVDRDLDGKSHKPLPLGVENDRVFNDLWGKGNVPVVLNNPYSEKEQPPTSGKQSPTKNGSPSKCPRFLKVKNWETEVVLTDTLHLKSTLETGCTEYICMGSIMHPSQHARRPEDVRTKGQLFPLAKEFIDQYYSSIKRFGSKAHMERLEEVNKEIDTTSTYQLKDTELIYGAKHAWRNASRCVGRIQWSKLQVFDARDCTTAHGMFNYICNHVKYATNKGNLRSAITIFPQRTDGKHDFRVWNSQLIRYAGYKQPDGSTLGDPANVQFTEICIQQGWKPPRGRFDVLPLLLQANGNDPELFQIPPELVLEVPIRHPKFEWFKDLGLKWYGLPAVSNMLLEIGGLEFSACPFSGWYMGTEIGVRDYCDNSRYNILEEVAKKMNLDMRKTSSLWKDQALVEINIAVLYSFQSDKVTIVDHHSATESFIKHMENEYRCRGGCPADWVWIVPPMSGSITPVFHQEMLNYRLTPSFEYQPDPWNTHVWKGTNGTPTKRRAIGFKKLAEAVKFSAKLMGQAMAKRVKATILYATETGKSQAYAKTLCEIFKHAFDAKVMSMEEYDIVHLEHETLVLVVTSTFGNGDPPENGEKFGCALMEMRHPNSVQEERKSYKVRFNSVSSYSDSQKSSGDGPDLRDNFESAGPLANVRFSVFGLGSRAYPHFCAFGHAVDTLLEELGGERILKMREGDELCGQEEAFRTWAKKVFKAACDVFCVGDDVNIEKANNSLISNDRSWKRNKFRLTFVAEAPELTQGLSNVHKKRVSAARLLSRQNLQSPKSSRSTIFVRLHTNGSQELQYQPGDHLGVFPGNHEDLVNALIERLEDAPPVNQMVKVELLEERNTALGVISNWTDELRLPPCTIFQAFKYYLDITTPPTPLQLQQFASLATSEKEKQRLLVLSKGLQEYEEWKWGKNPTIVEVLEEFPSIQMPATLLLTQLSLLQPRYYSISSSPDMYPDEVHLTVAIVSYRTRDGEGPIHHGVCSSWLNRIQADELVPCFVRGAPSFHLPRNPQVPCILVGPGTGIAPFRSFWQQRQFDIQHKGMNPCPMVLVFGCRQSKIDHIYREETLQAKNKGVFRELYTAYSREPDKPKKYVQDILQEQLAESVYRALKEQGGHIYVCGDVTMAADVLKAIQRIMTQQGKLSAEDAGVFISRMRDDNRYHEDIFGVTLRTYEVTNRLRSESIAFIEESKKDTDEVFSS
Recombinant human inducible NOS (iNOS), sequence (P35228 whole entry): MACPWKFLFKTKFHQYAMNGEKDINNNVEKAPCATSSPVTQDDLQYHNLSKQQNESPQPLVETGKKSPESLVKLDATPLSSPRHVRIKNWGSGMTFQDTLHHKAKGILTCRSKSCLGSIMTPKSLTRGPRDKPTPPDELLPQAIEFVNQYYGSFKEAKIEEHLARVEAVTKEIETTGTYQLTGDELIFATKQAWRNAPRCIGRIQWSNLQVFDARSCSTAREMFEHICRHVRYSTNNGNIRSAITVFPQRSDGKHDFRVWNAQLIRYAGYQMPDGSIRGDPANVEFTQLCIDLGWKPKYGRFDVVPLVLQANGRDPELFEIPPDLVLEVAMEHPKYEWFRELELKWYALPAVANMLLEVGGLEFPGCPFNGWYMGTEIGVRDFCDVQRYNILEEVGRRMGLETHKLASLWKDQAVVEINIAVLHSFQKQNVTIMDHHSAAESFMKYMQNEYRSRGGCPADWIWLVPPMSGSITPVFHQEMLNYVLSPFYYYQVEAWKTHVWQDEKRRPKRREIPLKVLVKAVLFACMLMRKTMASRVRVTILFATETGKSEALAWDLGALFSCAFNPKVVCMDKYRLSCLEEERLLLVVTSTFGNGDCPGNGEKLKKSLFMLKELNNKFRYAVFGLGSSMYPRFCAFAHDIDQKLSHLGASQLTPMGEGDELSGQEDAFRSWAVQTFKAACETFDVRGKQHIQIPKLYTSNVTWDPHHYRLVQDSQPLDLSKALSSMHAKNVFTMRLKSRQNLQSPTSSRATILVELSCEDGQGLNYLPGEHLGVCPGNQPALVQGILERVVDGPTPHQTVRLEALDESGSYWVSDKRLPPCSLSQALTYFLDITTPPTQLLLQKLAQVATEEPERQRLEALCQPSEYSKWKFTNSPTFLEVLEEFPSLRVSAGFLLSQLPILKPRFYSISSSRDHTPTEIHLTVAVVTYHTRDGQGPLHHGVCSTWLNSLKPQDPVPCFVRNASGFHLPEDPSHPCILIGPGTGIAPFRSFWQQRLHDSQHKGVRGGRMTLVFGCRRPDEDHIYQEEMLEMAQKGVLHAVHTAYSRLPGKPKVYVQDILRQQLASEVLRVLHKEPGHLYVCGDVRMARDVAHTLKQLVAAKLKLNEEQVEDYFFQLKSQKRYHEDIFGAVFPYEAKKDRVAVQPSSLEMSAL

For `CN1CCCC1CCN1CCCc2cc(NC(=N)c3cccs3)ccc21` (single isomer, unassigned) [Example 24, N-(1-(2-(1-Methylpyrrolidin-2-yl)ethyl)-1,2,3,4-tetrahydroquinolin-6-yl)thiophene-2-carboximidamide], the half-maximal inhibitory concentration (IC50) on iNOS (Mouse) is over 100 µM; at nNOS (Rat) it was 0.12 µM; in assay [1] (setting [6]), 0.17 µM; in assay [2] (setting [7]) it was 15.4 µM; on eNOS (Rat) it was 22 µM; in assay [3] it was 33.2 µM. In addition, at nNOS (Rat) (values in parentheses), the “Selectivity eNOS/nNOS (rodent data in parentheses)” value is “(183)”. Also, the “Selectivity eNOS/nNOS” value in assay [1] is 91.7.
For `N=C(Nc1ccc2c(c1)CCC(=O)N2CCN1CCCCC1)c1cccs1` [Example 1, N-(2-oxo-1-(2-(piperidin-1-yl)ethyl)-1,2,3,4-tetrahydroquinolin-6-yl)thiophene-2-carboximidamide], the IC50 was 8.5 µM on iNOS (Mouse); 0.022 µM on nNOS (Rat) (setting [8]); 0.78 µM in assay [1]; 25.2 µM in assay [2]; 52 µM at eNOS (Rat); 39 µM in assay [3] (setting [9]).
With `CN(C)CCN1C(=O)CCc2cc(NC(=N)c3cccs3)ccc21` [Example 3, N-(1-(2-(dimethylamino)ethyl)-2-oxo-1,2,3,4-tetrahydroquinolin-6-yl)thiophene-2-carboximidamide], the IC50 at iNOS (Mouse) is over 100 µM; at nNOS (Rat) it was 0.21 µM; in assay [1] it was 0.58 µM; on eNOS (Rat), 65 µM; in assay [3], 32 µM. Besides, in assay [4], the “antihyperalgesic effect in the Chung model” value (shortened to “antihyperalgesic effect”) is reported as “no antihyperalgesic effect”.
For `CN1CCCC1CCN1CCCc2cc(NC(=N)c3cccs3)ccc21` (centres unmarked) [Example 14, N-(1-(2-(1-methylpyrrolidin-2-yl)ethyl)-1,2,3,4-tetrahydroquinolin-6-yl)thiophene-2-carboximidamide], the half-inhibitory concentration (IC50) at iNOS (Mouse) is over 100 µM; on nNOS (Rat), 0.17 µM; in assay [2] (setting [7]), 17.4 µM; on eNOS (Rat), 35 µM; in assay [3], over 100 µM. Moreover, the “Selectivity eNOS/nNOS (rodent data in parentheses)” value on nNOS (Rat) (values in parentheses) is recorded as “(206)”. For the same compound, the “Selectivity eNOS/nNOS” value in assay [1] stood at 137.
In the case of `N=C(Nc1ccc2c(c1)CCCCN2CCN1CCCC1)c1cccs1` [Example 27, N-(1-(2-(Pyrrolidin-1-yl)ethyl)-2,3,4,5-tetrahydro-1H-benzo[b]azepin-7-yl)thiophene-2-carboximidamide], the IC50 on iNOS (Mouse) was over 100 µM; at nNOS (Rat) (setting [8]), 0.092 µM; in assay [1] (setting [6]), 0.35 µM; in assay [2] (setting [7]), 48.7 µM; at eNOS (Rat), 42.1 µM; in assay [3] it was 54.4 µM. Also, the “Selectivity eNOS/nNOS (rodent data in parentheses)” value at nNOS (Rat) (values in parentheses) is “(523)”. Further, the “Selectivity eNOS/nNOS” value in assay [1] was found to be 138.
`CN(C)CCN1CCCCc2cc(NC(=N)c3cccs3)ccc21.Cl.Cl` [Example 28, N-(1-(2-(Dimethylamino)ethyl)-2,3,4,5-tetrahydro-1H-benzo[b]azepin-7-yl)thiophene-2-carboximidamide dihydrochloride]: the IC50 was over 100 µM on iNOS (Mouse); 0.12 µM on nNOS (Rat) (setting [8]); 0.44 µM in assay [1] (setting [6]); 99.1 µM in assay [2]; 62.7 µM at eNOS (Rat); 35.7 µM in assay [3] (setting [9]). In assay [5] (30 mg/kg p.o. 15 minutes prior to IS), the “hindpaw allodynia after inflammatory soup (IS)” value was “reverses the development of hindpaw allodynia”. Also, the “antihyperalgesic effect” value in assay [4] is listed as “clear antihyperalgesic effect”.
In the case of `N=C(Nc1ccc2c(c1)CCCN2C1CCNC1)c1cccs1` (centres unmarked) [Example 29, N-(1-(Pyrrolidin-3-yl)-1,2,3,4-tetrahydroquinolin-6-yl)thiophene-2-carboximidamide dihydrochloride], the IC50 at iNOS (Mouse) was over 100 µM; at nNOS (Rat) (setting [8]) it was 0.15 µM; in assay [1], 0.25 µM; in assay [2], 23.5 µM; on eNOS (Rat), over 100 µM; in assay [3] (setting [9]), 15.6 µM and 6.94 µM.
With `CNCCN1CCCc2cc(NC(=N)c3cccs3)ccc21.Cl.Cl` [Example 30, N-(1-(2-(Methylamino)ethyl)-1,2,3,4-tetrahydroquinolin-6-yl)thiophene-2-carboximidamide dihydrochloride], the IC50 at iNOS (Mouse) was over 100 µM; on nNOS (Rat) (setting [8]), 0.192 µM; in assay [1] (setting [6]), 0.57 µM and 0.38 µM and 0.18 µM; in assay [2] (setting [7]), 24.7 µM and 29 µM; in assay [2], 40.7 µM; in assay [3] (setting [9]), over 100 µM. Besides, the “eNOS IC50 (rodent data in parentheses)” value at eNOS (Rat) was “(inactive)”.
In the case of `CN1CCC(C2C(=O)Nc3ccc(NC(=N)c4cccs4)cc32)CC1` (centres unmarked) [Example 31, N-(3-(1-Methylpiperidin-4-yl)-2-oxoindolin-5-yl)thiophene-2-carboximidamide], the IC50 was over 100 µM at iNOS (Mouse); 0.99 µM at nNOS (Rat) (setting [8]); 0.6 µM in assay [1] (setting [6]); 22.9 µM in assay [2] (setting [7]); over 100 µM at eNOS (Rat); 5.52 µM in assay [3] (setting [9]). Besides, the “Selectivity eNOS/nNOS” value in assay [1] was 38.3.
For `CN(C)CCN1CCCc2ccc(NC(=N)c3cccs3)cc21` [Example 32, N-(1-(2-(Dimethylamino)ethyl)-1,2,3,4-tetrahydroquinolin-7-yl)thiophene-2-carboximidamide], the half-inhibitory concentration (IC50) at iNOS (Mouse) is over 100 µM; at nNOS (Rat) (setting [8]) it was 0.94 µM; in assay [1] (setting [6]), 0.45 µM; in assay [2] (setting [7]) it was 37.7 µM; at eNOS (Rat), over 100 µM; in assay [3] (setting [9]), 0.26 µM. The “Selectivity eNOS/nNOS” value in assay [1] is reported as 83.2.
Turning to `CN1CCC(N2CCc3cc(NC(=N)c4cccs4)ccc32)CC1` [Example 37, N-(1-(1-Methylpiperidin-4-yl)indolin-5-yl)thiophene-2-carboximidamide], the “Selectivity eNOS/nNOS” value in assay [1] came to 41.2. Further, the IC50 in assay [1] (setting [6]) was 1.22 µM; in assay [2] (setting [7]), 50.3 µM; in assay [3] (setting [9]), 4.35 µM. Moreover, in assay [4], the “antihyperalgesic effect” value was “clear antihyperalgesic effect”.
For `CNCCN1CCCc2ccc(NC(=N)c3cccs3)cc21` [Example 44, N-(1-(2-(Methylamino)ethyl)-1,2,3,4-tetrahydroquinolin-7-yl)thiophene-2-carboximidamide], the IC50 was 4.3 µM on iNOS (Mouse); 0.48 µM on nNOS (Rat) (setting [8]); 0.12 µM in assay [1] (setting [6]); 22.4 µM in assay [2] (setting [7]); 0.63 µM at eNOS (Rat); over 100 µM in assay [3] (setting [9]). Moreover, the “Selectivity eNOS/nNOS” value in assay [1] was 187.
As for `N=C(Nc1ccc2c(c1)CCCN2C1CCNCC1)c1cccs1` [Example 47], the IC50 is 0.34 µM at iNOS (Mouse); 3.8 µM on nNOS (Rat) (setting [8]); 0.6 µM in assay [1] (setting [6]); 156 µM in assay [2] (setting [7]); over 100 µM on eNOS (Rat); 6.57 µM in assay [3] (setting [9]). The “Selectivity eNOS/nNOS” value in assay [1] stood at 260. For the same compound, the “antihyperalgesic effect” value in assay [4] is reported as “clear antihyperalgesic effect”.
On to `Cl.Cl.N=C(Nc1ccc2c(c1)CCN2C1CCNCC1)c1cccs1` [Example 54, N-(1-(Piperidin-4-yl)indolin-5-yl)thiophene-2-carboximidamide dihydrochloride], for which the IC50 at iNOS (Mouse) was 7.53 µM; on nNOS (Rat) (setting [8]), 2.6 µM; in assay [1] (setting [6]) it was 0.27 µM; in assay [2] (setting [7]), 46 µM; at eNOS (Rat) it was 12 µM; in assay [3], over 100 µM. Further, the “Selectivity eNOS/nNOS” value in assay [1] is on record as 170. In addition, the “antihyperalgesic effect” value in assay [4] was “clear antihyperalgesic effect”.
`CC(C)NCCN1CCCc2cc(NC(=N)c3cccs3)ccc21` [Example 61, N-(1-(2-(Isopropylamino)ethyl)-1,2,3,4-tetrahydroquinolin-6-yl)thiophene-2-carboximidamide]: the IC50 at iNOS (Mouse) came to 8 µM; on nNOS (Rat) (setting [8]), 1.1 µM; in assay [1] (setting [6]), 0.26 µM; in assay [2] (setting [7]), 30.2 µM; at eNOS (Rat) it was 6.2 µM; in assay [3] it was 2.9 µM. Also, on nNOS (Rat) (values in parentheses), the “Selectivity eNOS/nNOS (rodent data in parentheses)” value is “(5.6)”. In assay [1], the “Selectivity eNOS/nNOS” value came out at 116.
On to `CNS(=O)(=O)Cc1ccc2[nH]cc(CCN(C)C)c2c1` [Sumatriptan succinate, reference compound], for which the “hindpaw allodynia after inflammatory soup (IS)” value in assay [5] (1 mg/kg s.c. 5 minutes prior to the soup, measured two hours after IS) is recorded as “prevention of the development of hindpaw allodynia”.
